# Test results taken from patent publication US8192962B2, “Processes for detecting toxic substances” (Daikin Industries, Ltd., priority 2001, dated 2012).
# Tested on: Energy system protein genes
# Assay: DNA chip mRNA expression in yeast, energy system protein genes (Table 4)
# Assay type: cell-based, Saccharomyces cerevisiae S288C
# Procedure, shortened: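 In this screen, yeast in logarithmic growth are challenged for two hours with a toxic substance at a non-lethal inhibitory concentration. Their mRNA, converted to Cy3- or Cy5-labeled cDNA, hybridizes at 65° C. to a chip spanning every yeast gene, and expression is expressed as a ratio to untreated cells.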
structure (smiles),measurement,setting,value
"C=CC=O [(14), acrolein]",The level of expressed mRNA in the presence of chemical substance/The level of expressed mRNA in the absence of chemical substance,yeast gene YJR048W,2.5
same,The level of expressed mRNA in the presence of chemical substance/The level of expressed mRNA in the absence of chemical substance,"yeast gene YJR121W, cells incubated two hours with the chemical substance",0.7
same,The level of expressed mRNA in the presence of chemical substance/The level of expressed mRNA in the absence of chemical substance,yeast gene YJR155W,9.4
same,The level of expressed mRNA in the presence of chemical substance/The level of expressed mRNA in the absence of chemical substance,"yeast gene YKL016C, cells incubated two hours with the chemical substance",1.6
same,The level of expressed mRNA in the presence of chemical substance/The level of expressed mRNA in the absence of chemical substance,"yeast gene YKL060C, cells incubated two hours with the chemical substance",0.8
same,The level of expressed mRNA in the presence of chemical substance/The level of expressed mRNA in the absence of chemical substance,"yeast gene YKL141W, cells incubated two hours with the chemical substance",1.4
same,The level of expressed mRNA in the presence of chemical substance/The level of expressed mRNA in the absence of chemical substance,"yeast gene YKL148C, cells incubated two hours with the chemical substance",0.8
same,The level of expressed mRNA in the presence of chemical substance/The level of expressed mRNA in the absence of chemical substance,yeast gene YKL150W,1.4
same,The level of expressed mRNA in the presence of chemical substance/The level of expressed mRNA in the absence of chemical substance,"yeast gene YKR009C, cells incubated two hours with the chemical substance",1.0
same,The level of expressed mRNA in the presence of chemical substance/The level of expressed mRNA in the absence of chemical substance,"yeast gene YKR058W, cells incubated two hours with the chemical substance, 25° C., YPD medium",1.3
same,The level of expressed mRNA in the presence of chemical substance/The level of expressed mRNA in the absence of chemical substance,yeast gene YKR097W,2.1
same,The level of expressed mRNA in the presence of chemical substance/The level of expressed mRNA in the absence of chemical substance,"yeast gene YLL041C, cells incubated two hours with the chemical substance",1.2
same,The level of expressed mRNA in the presence of chemical substance/The level of expressed mRNA in the absence of chemical substance,"yeast gene YLR038C, cells incubated two hours with the chemical substance",1.6
same,The level of expressed mRNA in the presence of chemical substance/The level of expressed mRNA in the absence of chemical substance,"yeast gene YLR044C, cells incubated two hours with the chemical substance",0.5
same,The level of expressed mRNA in the presence of chemical substance/The level of expressed mRNA in the absence of chemical substance,"yeast gene YLR134W, cells incubated two hours with the chemical substance",0.6
same,The level of expressed mRNA in the presence of chemical substance/The level of expressed mRNA in the absence of chemical substance,"yeast gene YLR258W, cells incubated two hours with the chemical substance",1.2
same,The level of expressed mRNA in the presence of chemical substance/The level of expressed mRNA in the absence of chemical substance,"yeast gene YLR284C, cells incubated two hours with the chemical substance",1.3
same,The level of expressed mRNA in the presence of chemical substance/The level of expressed mRNA in the absence of chemical substance,"yeast gene YLR295C, cells incubated two hours with the chemical substance, 25° C., YPD medium",1.2
same,The level of expressed mRNA in the presence of chemical substance/The level of expressed mRNA in the absence of chemical substance,"yeast gene YLR304C, cells incubated two hours with the chemical substance",0.7
same,The level of expressed mRNA in the presence of chemical substance/The level of expressed mRNA in the absence of chemical substance,yeast gene YLR345W,1.5
same,The level of expressed mRNA in the presence of chemical substance/The level of expressed mRNA in the absence of chemical substance,"yeast gene YLR354C, cells incubated two hours with the chemical substance",0.9
same,The level of expressed mRNA in the presence of chemical substance/The level of expressed mRNA in the absence of chemical substance,"yeast gene YLR377C, cells incubated two hours with the chemical substance",2.9
same,The level of expressed mRNA in the presence of chemical substance/The level of expressed mRNA in the absence of chemical substance,"yeast gene YLR395C, cells incubated two hours with the chemical substance",1.7
same,The level of expressed mRNA in the presence of chemical substance/The level of expressed mRNA in the absence of chemical substance,yeast gene YML087C,2.1
same,The level of expressed mRNA in the presence of chemical substance/The level of expressed mRNA in the absence of chemical substance,"yeast gene YML120C, cells incubated two hours with the chemical substance",0.8
same,The level of expressed mRNA in the presence of chemical substance/The level of expressed mRNA in the absence of chemical substance,"yeast gene YML129C, cells incubated two hours with the chemical substance",1.4
same,The level of expressed mRNA in the presence of chemical substance/The level of expressed mRNA in the absence of chemical substance,"yeast gene YMR073C, cells incubated two hours with the chemical substance",2.0
same,The level of expressed mRNA in the presence of chemical substance/The level of expressed mRNA in the absence of chemical substance,yeast gene YMR118C,0.9
same,The level of expressed mRNA in the presence of chemical substance/The level of expressed mRNA in the absence of chemical substance,"yeast gene YMR205C, cells incubated two hours with the chemical substance",0.5
same,The level of expressed mRNA in the presence of chemical substance/The level of expressed mRNA in the absence of chemical substance,"yeast gene YMR261C, cells incubated two hours with the chemical substance",0.6
same,The level of expressed mRNA in the presence of chemical substance/The level of expressed mRNA in the absence of chemical substance,"yeast gene YMR267W, cells incubated two hours with the chemical substance, 25° C., YPD medium",1.0
same,The level of expressed mRNA in the presence of chemical substance/The level of expressed mRNA in the absence of chemical substance,"yeast gene YMR323W, cells incubated two hours with the chemical substance",1.2
same,The level of expressed mRNA in the presence of chemical substance/The level of expressed mRNA in the absence of chemical substance,yeast gene YNL071W,0.8
same,The level of expressed mRNA in the presence of chemical substance/The level of expressed mRNA in the absence of chemical substance,"yeast gene YNL202W, cells incubated two hours with the chemical substance",1.0
same,The level of expressed mRNA in the presence of chemical substance/The level of expressed mRNA in the absence of chemical substance,yeast gene YNL241C,1.1
same,The level of expressed mRNA in the presence of chemical substance/The level of expressed mRNA in the absence of chemical substance,yeast gene YNL331C,7.5
same,The level of expressed mRNA in the presence of chemical substance/The level of expressed mRNA in the absence of chemical substance,"yeast gene YOL086C, cells incubated two hours with the chemical substance",0.6
same,The level of expressed mRNA in the presence of chemical substance/The level of expressed mRNA in the absence of chemical substance,yeast gene YOL165C,9.1
same,The level of expressed mRNA in the presence of chemical substance/The level of expressed mRNA in the absence of chemical substance,"yeast gene YOR142W, cells incubated two hours with the chemical substance",0.8
same,The level of expressed mRNA in the presence of chemical substance/The level of expressed mRNA in the absence of chemical substance,"yeast gene YOR178C, cells incubated two hours with the chemical substance",1.0
same,The level of expressed mRNA in the presence of chemical substance/The level of expressed mRNA in the absence of chemical substance,"yeast gene YOR388C, cells incubated two hours with the chemical substance",1.3
same,The level of expressed mRNA in the presence of chemical substance/The level of expressed mRNA in the absence of chemical substance,"yeast gene YPL031C, cells incubated two hours with the chemical substance",0.9
same,The level of expressed mRNA in the presence of chemical substance/The level of expressed mRNA in the absence of chemical substance,"yeast gene YPL061W, cells incubated two hours with the chemical substance",0.6
same,The level of expressed mRNA in the presence of chemical substance/The level of expressed mRNA in the absence of chemical substance,yeast gene YPL088W,1.6
same,The level of expressed mRNA in the presence of chemical substance/The level of expressed mRNA in the absence of chemical substance,yeast gene YPL171C,9.3
same,The level of expressed mRNA in the presence of chemical substance/The level of expressed mRNA in the absence of chemical substance,yeast gene YPL240C,0.7
same,The level of expressed mRNA in the presence of chemical substance/The level of expressed mRNA in the absence of chemical substance,"yeast gene YPL262W, cells incubated two hours with the chemical substance",1.2
same,The level of expressed mRNA in the presence of chemical substance/The level of expressed mRNA in the absence of chemical substance,"yeast gene YPL275W, cells incubated two hours with the chemical substance",1.0
same,The level of expressed mRNA in the presence of chemical substance/The level of expressed mRNA in the absence of chemical substance,"yeast gene YPL276W, cells incubated two hours with the chemical substance",0.9
same,The level of expressed mRNA in the presence of chemical substance/The level of expressed mRNA in the absence of chemical substance,"yeast gene YPR048W, cells incubated two hours with the chemical substance",1.2
same,The level of expressed mRNA in the presence of chemical substance/The level of expressed mRNA in the absence of chemical substance,"yeast gene YPR184W, cells incubated two hours with the chemical substance",1.3
